Values of other authors as cited in paper PMC4585962, “A peptide factor secreted by Staphylococcus pseudintermedius exhibits properties of both bacteriocins and virulence factors” (Scientific Reports, 2015).

What was measured:
mammalian cells = conditions: cited from earlier work
From the text: In addition to the evident bactericidal activity of BacSp222, the most intriguing findings are its cytotoxic and modulatory effects on mammalian cells. Generally, peptide bacteriocins are considered to be noncytotoxic. However, the first known bacterial toxin active against eukaryotic and prokaryotic cells was a cytolysin produced by Enterococcus faecalis.

[1] = system: Galleria mellonella larvae; conditions: degradation or inactivation by host agents; cited from earlier work
Experimental: (§1) BacSp222 remains active upon even prolonged incubation at elevated temperature and is exceptionally resistant to proteases in vitro. The former feature is quite common for bacteriocins, which, in combination with the virtual lack of cytotoxicity, contributes to common and successful application of bacteriocins in the food industry as preservatives, either in the form of additives or as coating agents for packaging materials. […] Resistan ...

proteases = conditions: cited from earlier work
Experimental: as §1

bovicin HC5
concentrations with adverse effects on mammalian cells (mammalian cells): tens to hundreds

nisin: low molecular weight bacteriocin produced by lactic acid bacteria (ITSISLCTPGCKTGALMGCNMKTATCHCSIHVSK; not fully specified; Lantibiotic nisin-A; UniProt P13068 24-57, looked up)
concentrations with adverse effects on mammalian cells (mammalian cells): tens to hundreds

epidermicin NI01
time to loss of bacteriocin activity after administration [1]: lost within less than an hour

aureocin A53
resistance to proteases (proteases): Resistance to proteases
